Measured values published in PMC11930087, “Mobility of four structural regions drives isoform-specific properties of photoenzyme LPOR in plants” (The Journal of Biological Chemistry, 2025).
Where two headings read alike, the source gives them in different places.

Key:
SlPOR1 [1] = biological target: T1, SlPOR1 (Solanum lycopersicum, UniProt A0A3Q7HEX8); assay: […] K Pchlide fluorescence in darkness, F648/F635 ratio vs NADPH, hyperbolic fit; format: binding; details: lipid-free; 5 μM Pchlide, 15 μM LPOR, pH 7.1, room-temperature dark incubation; apparent parameter, exact value in supplement; read-out: KM^D
T1 construct: gene POR2; transit peptide removed; pET15b
T1 sequence (A0A3Q7HEX8 65-399): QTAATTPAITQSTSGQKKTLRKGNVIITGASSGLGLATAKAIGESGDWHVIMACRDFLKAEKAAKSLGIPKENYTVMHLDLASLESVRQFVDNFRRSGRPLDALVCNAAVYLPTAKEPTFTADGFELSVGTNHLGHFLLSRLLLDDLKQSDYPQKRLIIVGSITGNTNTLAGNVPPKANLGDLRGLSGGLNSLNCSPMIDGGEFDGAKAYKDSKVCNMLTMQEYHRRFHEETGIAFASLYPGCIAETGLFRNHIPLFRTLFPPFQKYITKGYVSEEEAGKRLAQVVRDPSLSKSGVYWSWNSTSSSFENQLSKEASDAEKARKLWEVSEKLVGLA

SlPOR3 [2] = biological target: T2, SlPOR3 (Solanum lycopersicum, UniProt A0A3Q7J565); assay: as above; format: binding; details: lipid-free; 5 μM Pchlide, 15 μM LPOR, pH 7.1, room-temperature dark incubation; apparent parameter, exact value in supplement; read-out: KM^D
T2 construct: gene LOC101248079; transit peptide removed; pET15b
T2 sequence (A0A3Q7J565 63-397): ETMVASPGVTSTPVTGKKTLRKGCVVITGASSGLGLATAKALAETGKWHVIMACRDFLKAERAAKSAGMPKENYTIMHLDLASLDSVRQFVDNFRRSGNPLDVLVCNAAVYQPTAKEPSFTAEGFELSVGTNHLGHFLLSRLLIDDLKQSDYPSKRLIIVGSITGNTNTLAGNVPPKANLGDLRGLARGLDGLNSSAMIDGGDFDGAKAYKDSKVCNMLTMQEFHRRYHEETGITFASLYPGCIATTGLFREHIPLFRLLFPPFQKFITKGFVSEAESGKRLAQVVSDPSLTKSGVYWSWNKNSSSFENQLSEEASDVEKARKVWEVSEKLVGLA

PinPOR = biological target: T3, PinPOR (Pinus mugo, UniProt Q41202); assay: as above; format: binding; details: lipid-free; 5 μM Pchlide, 15 μM LPOR, pH 7.1, room-temperature dark incubation; apparent parameter, exact value in supplement; read-out: KM^D
T3 construct: transit peptide removed; pET15b
T3 sequence (Q41202 67-400): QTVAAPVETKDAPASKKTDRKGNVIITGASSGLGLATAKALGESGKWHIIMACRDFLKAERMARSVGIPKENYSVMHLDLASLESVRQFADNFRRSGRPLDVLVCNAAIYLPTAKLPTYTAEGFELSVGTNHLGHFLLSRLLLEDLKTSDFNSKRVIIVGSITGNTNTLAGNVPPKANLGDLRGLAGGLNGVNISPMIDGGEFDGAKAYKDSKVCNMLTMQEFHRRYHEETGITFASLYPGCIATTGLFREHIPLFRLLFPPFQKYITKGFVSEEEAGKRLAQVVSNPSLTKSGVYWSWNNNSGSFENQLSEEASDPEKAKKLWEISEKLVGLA

TaPOR1 [3] = biological target: T4, TaPOR1 (Triticum aestivum, UniProt Q41578); assay: as above; format: binding; details: lipid-free; 5 μM Pchlide, 15 μM LPOR, pH 7.1, room-temperature dark incubation; apparent parameter, exact value in supplement; read-out: KM^D
T4 construct: gene PORA
T4 sequence (Q41578 75-388): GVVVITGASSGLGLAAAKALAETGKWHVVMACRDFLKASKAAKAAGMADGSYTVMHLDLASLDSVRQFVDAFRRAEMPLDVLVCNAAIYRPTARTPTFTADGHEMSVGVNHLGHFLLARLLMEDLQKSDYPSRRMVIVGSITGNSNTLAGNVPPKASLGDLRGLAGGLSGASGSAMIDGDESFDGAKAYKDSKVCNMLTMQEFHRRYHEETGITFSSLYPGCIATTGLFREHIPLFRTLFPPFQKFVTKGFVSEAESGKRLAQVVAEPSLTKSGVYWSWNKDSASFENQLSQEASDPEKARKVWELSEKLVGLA

SlPOR1 [4] = biological target: T1, SlPOR1; details: 5 uM Pchlide, 15 uM LPOR, binder
Description: (§1) (Figs. 3A, S2). […] The resulting plots resembled saturation curves, to which a hyperbolic function similar to the Michaelis–Menten equation could be fitted (Figs. 3B, S3, Materials and Methods). […] However, KM^L values were consistently lower than KM^D values. […] The addition of 400 μM OPT lipids lowered the KM^D constant for all isoforms, except for SlPOR1, SlPOR3, HaPOR1, HaPOR2, and PeaPOR, where the constant remained unchanged within error estimates. […] Shaded areas represent the SD between replicates. […] A fit of a modified Michaelis–Menten equation is shown, along with the graphical representation of KM^D (B) or KM^L (C). Spectra corresponding to the given F648/F635 values (B) or F Chlide/F Pchlide values (C) are shown on the right side of the plot. D, relationship between KM^D and KM^L for investigated isoforms. The overall distribution of data points is shown in gray. Error bars represent the uncertainty associated with the fitted constant KM^x. Closed symbols represent constants determined for samples not supplemented with lipids, while open symbols these determined in the presence of 400 μM OPT lipids. LPOR, light-dependent protochlorophyllide oxidoreductase; Pchlide, protochlorophyllide; Chlide, chlorophyllide.

SlPOR3 [5] = biological target: T2, SlPOR3; details: 5 uM Pchlide, 15 uM LPOR, binder
Description: as §1

AtPORA = biological target: T5, AtPORA (Arabidopsis thaliana, UniProt Q42536); assay: […] K Pchlide fluorescence in darkness, F648/F635 ratio vs NADPH, hyperbolic fit; format: binding; details: lipid-free; 5 μM Pchlide, 15 μM LPOR, pH 7.1, room-temperature dark incubation; apparent parameter, exact value in supplement; read-out: KM^D
T5 construct: gene PORA
T5 sequence (Q42536 70-405): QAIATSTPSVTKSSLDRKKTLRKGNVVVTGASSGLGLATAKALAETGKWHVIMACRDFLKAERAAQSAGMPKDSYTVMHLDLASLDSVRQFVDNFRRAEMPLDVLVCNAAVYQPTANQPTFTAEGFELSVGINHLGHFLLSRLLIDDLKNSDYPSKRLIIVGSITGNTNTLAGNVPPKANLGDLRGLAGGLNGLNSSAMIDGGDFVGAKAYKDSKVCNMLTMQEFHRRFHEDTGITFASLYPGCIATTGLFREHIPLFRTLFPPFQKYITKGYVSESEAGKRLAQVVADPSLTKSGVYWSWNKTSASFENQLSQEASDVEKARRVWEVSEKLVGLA

TaPOR1 [6] = biological target: T4, TaPOR1; details: 400 uM OPT lipids; substrate; read-out: illuminated, 400 uM OPT, KM^L
Description: All samples were thawed in darkness, illuminated for 20 s to initiate the reaction, and then frozen again and remeasured. […] These plots also resembled saturation curves, to which a hyperbolic function similar to the modified Michaelis–Menten equation could be fitted (Figs. 3C, S5, Materials and Methods).

NC(=O)C1=CN([C@@H]2O[C@H](COP(=O)(O)OP(=O)(O)OC[C@H]3O[C@@H](n4cnc5c(N)ncnc54)[C@H](OP(=O)(O)O)[C@@H]3O)[C@@H](O)[C@H]2O)C=CC1 [NADPH]
Kd (SlPOR1 [1]): < 10 µM | Kd (SlPOR3 [2]): < 10 µM | Kd (PinPOR): < 10 µM | Kd (TaPOR1 [3]): > 100 µM | apparent Michaelis constant in the dark (KM^D) (SlPOR1 [4]; 400 uM OPT lipids): 7.2 µM | apparent Michaelis constant in the dark (KM^D) (SlPOR1 [4]; no lipids): 8.6 µM | apparent Michaelis constant in dark (KM^D) (SlPOR3 [5]; 400 uM OPT lipids): 3 µM | apparent KM (dark, KM^D) (SlPOR3 [5]; no lipids): 4.9 µM | Kd (AtPORA): > 100 µM | Km (TaPOR1 [6]): 39.7 µM
